# Test results from the supplement of paper PMC12325586.
# System: MIA PaCa-2
# Description: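 MIA PaCa-2 Tet-on shOFD1 pancreatic cancer cells (2000 cells/well, 96-well) were treated with Selleck FDA-approved library compounds at 0, 1, 5, 10, 25 and 50 µM, with extra concentrations added where needed, for 72 h at 37 °C. Knockdown wells also received 100 ng/mL doxycycline; control wells received DMSO without doxycycline. Viability was read by CCK-8 absorbance at 450 nm and normalised to DMSO control wells. IC50 was fitted in GraphPad Prism as a 4-parameter logistic with bottom fixed at 0 and top fixed at 1; at least 3 technical replicate wells per condition.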
# [1] = OFD1 knockdown: no (no doxycycline)
# [2] = OFD1 knockdown: yes (Tet-on shOFD1, 100 ng/mL doxycycline)
SMILES,IC50 cell viability [1] [µM],IC50 cell viability [2] [µM]
Clc1ccc(Nc2nnc(Cc3ccncc3)c3ccccc23)cc1 [S1101],30.8,24.3
C/C(=C\c1csc(C)n1)[C@@H]1C[C@@H]2O[C@]2(C)CCC[C@H](C)[C@H](O)[C@@H](C)C(=O)C(C)(C)[C@@H](O)CC(=O)O1 [S1364],0.76,0.87
CN1CCN(C2=Nc3cc(Cl)ccc3Nc3ccccc32)CC1 [S2459],18.9,18
CC(=O)Nc1cccc(-n2c(=O)n(C3CC3)c(=O)c3c(Nc4ccc(I)cc4F)n(C)c(=O)c(C)c32)c1 [S2673],23.9,21.9
O=C(c1ccc(OCCN2CCCCC2)cc1)c1c(-c2ccc(O)cc2)sc2cc(O)ccc12 [S1227],8.3,8.74
Cc1cccc(-c2nn3c(c2-c2ccnc4ccc(C(N)=O)cc24)CCC3)n1 [S2230],3.61,3.02
Cc1nc(-c2ccc(OCC(C)C)c(C#N)c2)sc1C(=O)O [S1547],12.4,12.3
Cc1c(N)nc(C(CC(N)=O)NCC(N)C(N)=O)nc1C(=O)NC(C(=O)NC(C)C(O)C(C)C(=O)NC(C(=O)NCCc1nc(-c2nc(C(=O)NCCC[S+](C)C)cs2)cs1)C(C)O)C(O[C@@H]1O[C@@H](CO)[C@@H](O)[C@H](O)[C@@H]1O[C@H]1O[C@H](CO)[C@@H](O)[C@H](OC(N)=O)[C@@H]1O)c1cnc[nH]1 (stereo partly specified) [S1214],1.84,1.69
COc1cc([C@@H]2c3cc4c(cc3[C@@H](O[C@@H]3O[C@@H]5CO[C@@H](c6cccs6)O[C@H]5[C@H](O)[C@H]3O)[C@H]3COC(=O)[C@H]23)OCO4)cc(OC)c1O [S1787],0.62,0.59
C[C@]12CCC(=O)C=C1CC[C@@H]1[C@@H]2[C@@H](O)C[C@@]2(C)[C@H]1CC[C@]2(O)C(=O)CO [S1696],57.9,53.4
CN(C)c1nc(N(C)C)nc(N(C)C)n1 [S1278],2.56,2.43
C[C@H]1C[C@H]2[C@@H]3CCC4=CC(=O)C=C[C@]4(C)[C@H]3C(=O)C[C@]2(C)[C@@]1(O)C(=O)CO [S1689],17.6,16.8
CNC(=O)c1ccc(N2C(=S)N(c3ccc(C#N)c(C(F)(F)F)c3)C(=O)C2(C)C)cc1F [S1250],29.5,27.8
CS(=O)(=O)CCNCc1ccc(-c2ccc3ncnc(Nc4ccc(OCc5cccc(F)c5)c(Cl)c4)c3c2)o1 [S2111],9.12,8.03
O=C(Nc1c(Cl)cncc1Cl)c1ccc(OC(F)F)c(OCC2CC2)c1 [S2131],22,20
Oc1ncnc2[nH]ncc12 [S1630],13.5,13.3
CC1(C)O[C@@H]2C[C@H]3[C@@H]4CCC5=CC(=O)C=C[C@]5(C)[C@@]4(F)[C@@H](O)C[C@]3(C)[C@]2(C(=O)CO)O1 [S1628],23,22.1
C[C@]1(c2nc3c(C(N)=O)cccc3[nH]2)CCCN1 [S1004],77,44.1
S=c1[nH]cnc2nc[nH]c12 [S1305],27.5,27.7
COCC[n+]1c2c(n(Cc3cnccn3)c1C)C(=O)c1ccccc1C2=O [S1130],0.82,0.92
COCCCOc1cc(C[C@@H](C[C@H](N)[C@@H](O)C[C@H](C(=O)NCC(C)(C)C(N)=O)C(C)C)C(C)C)ccc1OC [S2199],4.3,3.52
O=C1[C@H](CC[C@H](O)c2ccc(F)cc2)[C@@H](c2ccc(O)cc2)N1c1ccc(F)cc1 [S1655],3.33,3.62

SMILES,IC50 cell viability [1] [µM],IC50 cell viability [2] [µM]
Nc1nc(F)nc2c1ncn2[C@@H]1O[C@H](CO)[C@@H](O)[C@@H]1O [S1491],59,54.2
Cc1ccc(-n2nc(C(C)(C)C)cc2NC(=O)Nc2ccc(OCCN3CCOCC3)c3ccccc23)cc1 [S1574],77.2,83.8
CC(C)(C#N)c1cc(Cn2cncn2)cc(C(C)(C)C#N)c1 [S1188],47.1,59.2
CC(=O)OCC(=O)[C@@]1(O)[C@H](C)C[C@H]2[C@@H]3CCC4=CC(=O)C=C[C@]4(C)[C@@]3(F)[C@@H](O)C[C@@]21C [S3124],51.2,49.6
CC(O)(CS(=O)(=O)c1ccc(F)cc1)C(=O)Nc1ccc(C#N)c(C(F)(F)F)c1 (stereo unspecified) [S1190],53.5,45.6
Cc1c(C(=O)Nc2ccc(N3C[C@@H](C)O[C@@H](C)C3)nc2)cccc1-c1ccc(OC(F)(F)F)cc1 [S2151],3.41,3.2
N[C@@H](CC(=O)N1CCn2c(nnc2C(F)(F)F)C1)Cc1cc(F)c(F)cc1F [S4002],21.9,21.2
CC1=C(/C=C/C(C)=C/C=C/C(C)=C\C(=O)O)C(C)(C)CCC1 [S1379],12.2,11.5
C[C@@H](O[C@H]1OCCN(Cc2n[nH]c(=O)[nH]2)[C@H]1c1ccc(F)cc1)c1cc(C(F)(F)F)cc(C(F)(F)F)c1 [S1189],13.9,14.2
COc1cc2/c(=N/c3ccc(Br)cc3F)nc[nH]c2cc1OCC1CCN(C)CC1 [S1046],5.87,5.04
C[C@@H]1C[C@H]2[C@@H]3CCC4=CC(=O)C=C[C@]4(C)[C@@]3(F)[C@@H](O)C[C@]2(C)[C@@]1(O)C(=O)CO [S1322],8.52,7.75
Cc1ccc(NC(=O)c2ccc(CN3CCN(C)CC3)cc2)cc1Nc1nccc(-c2cccnc2)n1 [S2475],6.98,6.56
CC(=O)O[C@@]12CO[C@@H]1C[C@H](O)[C@@]1(C)C(=O)[C@H](O)C3=C(C)[C@@H](OC(=O)[C@H](O)[C@@H](NC(=O)OC(C)(C)C)c4ccccc4)C[C@@](O)([C@@H](OC(=O)c4ccccc4)[C@H]21)C3(C)C [S1148],0.39,0.34
COc1ccccc1OCC(O)CN1CCN(CC(=O)Nc2c(C)cccc2C)CC1 (stereo unspecified) [S1799],20.2,19.2
COc1ccc(-c2nc3cc(C4=NNC(=O)CC4C)ccc3[nH]2)cc1 (stereo unspecified) [S1550],26.3,28.8
CC(C)C[C@H](NC(=O)CNC(=O)c1cc(Cl)ccc1Cl)B(O)O [S2180],45.1,39.6
C[C@]12C=CC(=O)N[C@@H]1CC[C@@H]1[C@@H]2CC[C@]2(C)[C@@H](C(=O)Nc3cc(C(F)(F)F)ccc3C(F)(F)F)CC[C@@H]12 [S1202],2.38,2.28
CCN(CC)C(=O)/C(C#N)=C/c1cc(O)c(O)c([N+](=O)[O-])c1 [S3147],3.57,3.44
O=C1CN2Cc3c(ccc(Cl)c3Cl)N=C2N1 [S3172],8.82,8.26
C=CC(=O)Nc1cc(Nc2nccc(-c3cn(C)c4ccccc34)n2)c(OC)cc1N(C)CCN(C)C [S7297],11.4,9.5
C[C@]12CCC(=O)C(O)=C1CC[C@@H]1[C@@H]2CC[C@]2(C)C(=O)CC[C@@H]12 [S2208],11,10.4
